Experimental data from patent publication US20190256827A1, “EPIGENOME EDITING SYSTEMS AND METHODS” (STC.UNM, priority 2017, published 2019).

Assays:
Type in all cases: cell-based, human
[1] = system: TIR1*/AID dimerization, inducible EGFP reporter in HEK293T cells; assay: IAA-inducible EGFP transcriptional activation assay (GAL4DBD-TIR1* or GAL4DBD-TIR1^WT with VP16AD-AID); settings: with or without IAA for 24 hours
Text: Based on sequence alignment analysis against Arabidopsis thaliana TIR1, a mutant form of Oryza sativa TIR1 (TIR1*) was engineered. TIR1* contained a double mutation, where glutamic acid residues at position 7 and position 10 were replaced with lysine residues (YFPEKVVKHIFSFL, SEQ ID NO:125) that inhibited the ability of TIR* to interact with the SCF complex. To test if TIR1* indeed no longer mediated IAA-induced degradation, but would still bind to AID in the presence of IAA, an IAA-inducible EGFP transcriptional activation assay was constructed. In this assay, EGFP would only be expressed when a functional transcriptional activator was reconstituted by IAA from the two split halves (a DNA binding domain, DBD, and an activation domain, AD, each linked to an IAA-dimerizable protein, TIR* and AID). DNA constructs were made that encoded fusion proteins of GAL4DBD-TIR1*, GAL4DBD-TIR1^WT (the mutant (TIR*) and the wild type TIR1 (TIR1^WT) fused to DBD from GAL4, respectively) and VP16AD-AID (AID fused to VP16 AD). If the AID fusion protein was degraded or the dimerization of TIR1 and AID was disrupted, no EGFP expression would occur. Either GAL4DBD-TIR1* or GAL4DBD-TIR1^WT was co-transfected with VP16AD-AID and an inducible EGFP reporter construct that contains 5×GALDBD binding sites into HEK293T cells with or without the addition of IAA for 24 hours.

[2] = system: GAL4DBD-TIR1*/VP16AD-AID, inducible luciferase reporter in HEK293T cells; assay: Inducible luciferase reporter assay, IAA-responsive system (orthogonality and reversibility)
Procedure: To ensure that IAA and ABA could be used to independently control two histone modification editing events, the orthogonality between these two systems was tested. HEK293T cells were co-transfected with either GAL4DBD-TIR1*/VP16AD-AID (responsive to IAA) or GAL4DBD-ABI/VP16AD-PYL (responsive to ABA), and an inducible luciferase reporter construct. This was followed by treating cells with either IAA or ABA (or DMSO as a control) for 24 hours. […] To test the reversibility of IAA-induced dimerization, in which it was critical to achieve precise temporal control, HEK293T cells were co-transfected with GAL4DBD-TIR1*, VP16AD-AID, and an inducible luciferase expression construct, and then treated cells with 50 μM IAA for 24 hours. Cells were then washed with fresh media without IAA to remove the inducer (or no washing as a control). They were then harvested for luciferase assays after washing.

[3] = system: IL1RN mRNA in HEK293T cells; assay: qPCR of IL1RN mRNA levels (dCas9-PYL-HA, FLAG-ABI-P300, sgRNAs)
Procedure: To study how IL1RN expression levels change, total RNAs from the cell lysates generated in the above experiment were purified and then subjected to qPCR analysis to quantify mRNA levels.
Human embryonic kidney cell HEK293T (American Type Culture Collection, Manassas, Va.) was cultured in Dulbecco's modified Eagle's medium (DMEM) (Gibco) with 10% FBS (Atlanta Biologicals), 1× GlutaMax (Gibco, Thermo Fisher Scientific, Inc., Waltham, Mass.), and 1× penicillin/streptomycin (Pen/Strep; Gibco, Thermo Fisher Scientific, Inc., Waltham, Mass.). Cells (100,000/ml) were plated in 24-well or 10-cm cell culture plate the day before transfection. For each well of 24-well plate transfection, 500 ng of dCas9-PYL-HA, 420 ng of FLAG-ABI-P300, and a total amount of 200-ng mix of gRNAs, with a 50-ng per each gRNA, were mixed with 50×(v/w) Opti-MEM (Gibco, Thermo Fisher Scientific, Inc., Waltham, Mass.), then incubate with the same volume of 3 μg PEI-Opti-MEM solution for 20 minutes at room temperature. Then, 100 μL of PEI-combined plasmids were added to every single well of 24-well plate and cultured for 24 hours before experiments were performed. For a 10 cm plate, 1 mL of PEI-combined plasmids were needed. After six hours transfection, cells were washed and incubated for another 1-72 hours before experiments were performed.
Total RNA was extracted using the EZNA Total RNA Kit I (Omega Bio-tek, Inc., Norcross, Ga.). qPCR reactions were performed on cDNA prepared from 1,000 ng of total cellular RNA using the High-Capacity cDNA Reverse Transcription Kit (Applied Biosystems Co., Thermo Fisher Scientific, Inc., Foster City, Calif.). TaqMan qPCR probes (Thermo Fisher Scientific, Inc., Waltham, Mass. IL1RN, Hs00893626; GRM2, Hs00968358; HBA, Hs00361191; MYOD1 Hs02330075; GAPDH, Hs99999905) and Fast Advanced Master Mix (Life Technologies Co., Co., Thermo Fisher Scientific, Inc., Carlsbad, Calif.) were used in multiplexed reactions and 384-well format in a 7900HT Fast Real-Time PCR System (Applied Biosystems Co., Thermo Fisher Scientific, Inc., Foster City, Calif.). All measurements were performed at least in triplicate. Data were analyzed using the SDS software, version 2.4 (Applied Biosystems Co., Thermo Fisher Scientific, Inc., Foster City, Calif.), by the ΔΔCt method: the Ct values of target gene were normalized to Ct values of GAPDH, the folds of target gene expression changes were normalized to experimental controls. Analyzed data are reported as the mean±s.e.m. for biological replicates. In ChIP assays, the Ct values of antibodies pulled down segments were normalized to the Ct values of 10% input.

| Compound | expression of EGFP [1] | reversibility of IAA-induced luciferase expression after washing ([2]; 50 μM IAA for 24 hours, then washed with fresh media without IAA) | luciferase expression, IAA-responsive system ([2]; treated with IAA or ABA or DMSO for 24 hours) | IL1RN mRNA expression with caged ABA, no UV light ([3]; 20 μM ABA-DMNB, not irradiated, vs DMSO) | IL1RN mRNA levels after uncaging by UV light ([3]; ABA-DMNB uncaged by exposure to UV light) |
| --- | --- | --- | --- | --- | --- |
| O=C(O)Cc1c[nH]c2ccccc12 [IAA, indole-3-acetic acid] | Only the combination of the TIR1 mutant TIR* and the IAA addition induced the expression of EGFP | readily reversible | Only the proper combination of inducer with corresponding binding proteins could induce luciferase expression |  |  |
| COc1cc(COC(=O)/C=C(C)\C=C\[C@@]2(O)C(C)=CC(=O)CC2(C)C)c([N+](=O)[O-])cc1OC [ABA-DMNB] |  |  |  | at levels of negative control (DMSO) | mRNA levels increased |
